# Measurements published in patent US12110289B2, “Heterocyclic compounds, preparation methods and uses thereof” (InventisBio Co., Ltd., priority 2020, dated 2024).
# Read-outs that look alike come from different tables or passages of the source.
# System: Lung cancer cell line NCI-H358 containing KRas G12C mutation
# Test: Assay for cell proliferation (Cell-titer Glo, 5 days)
# Type: cell-based, human
# Settings: for IC50: NCI-H358, 5 days, Cell-titer Glo, read-out: IC50 (nM), Inhibition of NCI-H358 Cell Proliferation
# Procedure: One hundred fifty microliter (150 μL) of media containing 2000 cells per well were seeded into each well of a 96-well culture plate and left to attach overnight in a 37° C. incubator with 5% CO2. Diluted compounds of 0.75 μL for each well were added by liquid handler at a final concentration of 0.5% DMSO. Cells were treated for 5 days in the incubator. Cell-titer Glo (CTG) kit (Promega) was used to assess cell proliferation. Of note, 120 μL of CTG reagent was added to each well and incubated at RT for 10 minutes.
"IC50 (Homo sapiens, NCI-H358, 120 h) [nM]",Structure (SMILES),other results
37.4,C=CC(=O)N1C[C@H](C)N(c2nc(=O)n(-c3c(C4CC4)nc(N4CCNCC4)nc3C3CC3)c3nc(-c4ccccc4F)c(F)cc23)C[C@H]1C [Compound 102],–
47.6,C=CC(=O)N1C[C@H](C)N(c2nc(=O)n(-c3c(C4CC4)nc(N4CCN(C)CC4)nc3C3CC3)c3nc(-c4ccccc4F)c(F)cc23)C[C@H]1C [Compound 103],–
8.8,C=CC(=O)N1CCN(c2nc(=O)n(-c3c(C(C)C)nc(C4CC4)nc3C(C)C)c3nc(-c4c(N)cccc4F)c(F)cc23)[C@@H](C)C1 [Compound 105],–
10.2,C=CC(=O)N1CCN(c2nc(=O)n(-c3c(C(C)C)nc(N)nc3C(C)C)c3nc(-c4c(O)cccc4F)c(Cl)cc23)[C@@H](C)C1 [Compound 106],–
5.2,C=CC(=O)N1C[C@H](C)N(c2nc(=O)n(-c3c(C(C)C)nc(N)nc3C(C)C)c3nc(-c4c(O)cccc4F)c(Cl)cc23)C[C@H]1C [Compound 107],–
46.5,C=CC(=O)N1CCN(c2nc(=O)n(-c3c(C(C)C)nc(N)nc3C(C)C)c3nc(-c4c(O)cccc4F)c(F)cc23)[C@@H](C)C1 [Compound 108],–
12.3,C=CC(=O)N1C[C@H](C)N(c2nc(=O)n(-c3c(C(C)C)nc(N)nc3C(C)C)c3nc(-c4c(O)cccc4F)c(F)cc23)C[C@H]1C [Compound 109],–
10.1,C=CC(=O)N1CCN(c2nc(=O)n(-c3c(C4CC4)nc(N)nc3C3CC3)c3nc(-c4c(O)cccc4F)c(Cl)cc23)[C@@H](C)C1 [Compound 110],–
6.3,C=CC(=O)N1C[C@H](C)N(c2nc(=O)n(-c3c(C4CC4)nc(N)nc3C3CC3)c3nc(-c4c(O)cccc4F)c(Cl)cc23)C[C@H]1C [Compound 111],–
32.1,C=CC(=O)N1CCN(c2nc(=O)n(-c3c(C4CC4)nc(N)nc3C3CC3)c3nc(-c4c(O)cccc4F)c(F)cc23)[C@@H](C)C1 [Compound 112],–
48.5,C=CC(=O)N1C[C@H](C)N(c2nc(=O)n(-c3c(C4CC4)nc(N)nc3C3CC3)c3nc(-c4c(O)cccc4F)c(F)cc23)C[C@H]1C [Compound 113],–
497,C=CC(=O)N1C[C@H](C)N(c2nc(=O)n(-c3c(C4CC4)nc(C)nc3C3CC3)c3nc(-c4cccc5[nH]nc(N)c45)c(F)cc23)C[C@H]1C [Compound 114],–
4.6,C=CC(=O)N1C[C@H](C)N(c2nc(=O)n(-c3c(C4CC4)nc(N4CCNCC4)nc3C3CC3)c3nc(-c4c(N)cccc4F)c(Cl)cc23)C[C@H]1C [Compound 115],–
15.8,C=CC(=O)N1CCN(c2nc(=O)n(-c3c(C4CC4)nc(N4CCNCC4)nc3C3CC3)c3nc(-c4ccccc4F)c(Cl)cc23)[C@@H](C)C1 [Compound 116],–
12.9,C=CC(=O)N1CCN(c2nc(=O)n(-c3c(C(C)C)nc4ocnc4c3C)c3nc(-c4ccccc4F)c(Cl)cc23)[C@@H](C)C1 [Compound 117],–
40.2,C=CC(=O)N1CCN(c2nc(=O)n(-c3c(C(C)C)nc(C(F)(F)F)nc3C(C)C)c3nc(-c4c(N)cccc4F)c(F)cc23)[C@@H](C)C1 [Compound 118],–
9.6,C=CC(=O)N1CCN(c2nc(=O)n(-c3c(C4CC4)nc(OC(F)F)nc3C3CC3)c3nc(-c4c(N)cccc4F)c(F)cc23)[C@@H](C)C1 [Compound 119],–
146,C[C@H]1CN(C(=O)/C=C/CN2CC(F)C2)CCN1c1nc(=O)n(-c2c(C3CC3)ncnc2C2CC2)c2nc(-c3c(N)cccc3F)c(Cl)cc12 [Compound 120],–
> 3000,C=CC(=O)N1C[C@H](C)N(c2nc(=O)n(-c3c(C(C)C)nc(C(=O)O)nc3C(C)C)c3nc(-c4ccccc4F)c(F)cc23)C[C@H]1C [Compound 121],–
> 3000,C=CC(=O)N1C[C@H](C)N(c2nc(=O)n(-c3c(C(C)C)nc(C(=O)O)nc3C(C)C)c3nc(-c4c(O)cccc4F)c(F)cc23)C[C@H]1C [Compound 122],–
> 3000,C=CC(=O)N1C[C@H](C)N(c2nc(=O)n(-c3c(C(C)C)nc(C(=O)O)nc3C(C)C)c3nc(-c4c(N)cccc4F)c(F)cc23)C[C@H]1C [Compound 123],–
210,C=C(F)C(=O)N1CCN(c2nc(=O)n(-c3c(C4CC4)ncnc3C3CC3)c3nc(-c4c(N)cccc4F)c(Cl)cc23)[C@@H](C)C1 [Compound 131],–
157,C=C(F)C(=O)N1C[C@H](C)N(c2nc(=O)n(-c3c(C4CC4)ncnc3C3CC3)c3nc(-c4c(N)cccc4F)c(Cl)cc23)C[C@H]1C [Compound 132],–
58.7,COC/C=C/C(=O)N1C[C@H](C)N(c2nc(=O)n(-c3c(C4CC4)ncnc3C3CC3)c3nc(-c4c(N)cccc4F)c(Cl)cc23)C[C@H]1C [Compound 140],–

# Continued, molecule first:
Structure (SMILES),"IC50 (Homo sapiens, NCI-H358, 120 h) [nM]",other results
C=CC(=O)N1CCN(c2nc(=O)n(-c3c(C4CC4)nc(OC)nc3C3CC3)c3nc(-c4c(N)cccc4F)c(F)cc23)[C@@H](C)C1 [Compound 74],5.7,–
C=CC(=O)N1CCN(c2nc(=O)n(-c3c(C(C)C)nc(C)nc3C(C)C)c3nc(-c4c(O)cccc4F)c(F)cc23)[C@@H](C)C1 [Compound 77],8.6,–
C=CC(=O)N1CCN(c2nc(=O)n(-c3c(C(C)C)nc(C)nc3C(C)C)c3nc(-c4c(N)cccc4F)c(F)cc23)[C@@H](C)C1 [Compound 78],10.4,fold more potent: 2-amino-6-fluoro-phenyl compound vs. corresponding 2-fluoro-phenyl compound at R8 (NCI-H358 IC50 comparison): only slightly more potent
C=CC(=O)N1C[C@H](C)N(c2nc(=O)n(-c3c(C4CC4)nc(OC)nc3C3CC3)c3nc(-c4c(O)cccc4F)c(F)cc23)C[C@H]1C [Compound 79],12.9,–
C=CC(=O)N1C[C@H](C)N(c2nc(=O)n(-c3c(C4CC4)nc(OC)nc3C3CC3)c3nc(-c4c(N)cccc4F)c(F)cc23)C[C@H]1C [Compound 80],8.1,–
C=CC(=O)N1CCN(c2nc(=O)n(-c3c(C)cc(OC)nc3C(C)C)c3nc(-c4c(O)cccc4F)c(F)cc23)[C@@H](C)C1 [Compound 81],35.9,–
C=CC(=O)N1CCN(c2nc(=O)n(-c3c(C(C)C)nc(N4CCNCC4)nc3C(C)C)c3nc(-c4c(O)cccc4F)c(Cl)cc23)[C@@H](C)C1 [Compound 82],10.8,–
C=CC(=O)N1CCN(c2nc(=O)n(-c3c(C(C)C)nc(N4CCNCC4)nc3C(C)C)c3nc(-c4c(N)cccc4F)c(Cl)cc23)[C@@H](C)C1 [Compound 83],5.9,–
C=CC(=O)N1C[C@H](C)N(c2nc(=O)n(-c3c(C(C)C)nc(N4CCNCC4)nc3C(C)C)c3nc(-c4ccccc4F)c(Cl)cc23)C[C@H]1C [Compound 84],6.9,–
C=CC(=O)N1C[C@H](C)N(c2nc(=O)n(-c3c(C4CC4)nc(N4CCNCC4)nc3C3CC3)c3nc(-c4ccccc4F)c(Cl)cc23)C[C@H]1C [Compound 85],9.7,–
C=CC(=O)N1C[C@H](C)N(c2nc(=O)n(-c3c(C4CC4)nc(N4CCNCC4)nc3C3CC3)c3nc(-c4c(O)cccc4F)c(Cl)cc23)C[C@H]1C [Compound 86],8.6,–
C=CC(=O)N1C[C@H](C)N(c2nc(=O)n(-c3c(C(C)C)nc(N4CCNCC4)nc3C(C)C)c3nc(-c4c(N)cccc4F)c(Cl)cc23)C[C@H]1C [Compound 87],4.1,–
C=CC(=O)N1CCN(c2nc(=O)n(-c3c(C4CC4)nc(N4CCNCC4)nc3C3CC3)c3nc(-c4c(O)cccc4F)c(Cl)cc23)[C@@H](C)C1 [Compound 88],21.2,–
C=CC(=O)N1CCN(c2nc(=O)n(-c3c(C4CC4)nc(N4CCN(C)CC4)nc3C3CC3)c3nc(-c4c(O)cccc4F)c(Cl)cc23)[C@@H](C)C1 [Compound 89],1.5,–
C=CC(=O)N1CCN(c2nc(=O)n(-c3c(C4CC4)nc(N4CCN(C)CC4)nc3C3CC3)c3nc(-c4ccccc4F)c(Cl)cc23)[C@@H](C)C1 [Compound 91],7.8,–
C=CC(=O)N1CCN(c2nc(=O)n(-c3c(C4CC4)nc(N4CCNCC4)nc3C3CC3)c3nc(-c4c(N)cccc4F)c(Cl)cc23)[C@@H](C)C1 [Compound 92],2.8,–
C=CC(=O)N1CCN(c2nc(=O)n(-c3c(C4CC4)nc(N4CCN(C)CC4)nc3C3CC3)c3nc(-c4c(N)cccc4F)c(Cl)cc23)[C@@H](C)C1 [Compound 93],1.8,–
C=CC(=O)N1C[C@H](C)N(c2nc(=O)n(-c3c(C(C)C)nc(N4CCNCC4)nc3C(C)C)c3nc(-c4ccccc4F)c(F)cc23)C[C@H]1C [Compound 94],37.5,–
C=CC(=O)N1C[C@H](C)N(c2nc(=O)n(-c3c(C(C)C)nc(N4CCNCC4)nc3C(C)C)c3nc(-c4c(O)cccc4F)c(F)cc23)C[C@H]1C [Compound 95],14.6,–
C=CC(=O)N1C[C@H](C)N(c2nc(=O)n(-c3c(C(C)C)nc(N4CCNCC4)nc3C(C)C)c3nc(-c4c(N)cccc4F)c(F)cc23)C[C@H]1C [Compound 96],10.8,–
C=CC(=O)N1C[C@H](C)N(c2nc(=O)n(-c3c(C(C)C)nc(N4CCN(C)CC4)nc3C(C)C)c3nc(-c4c(N)cccc4F)c(F)cc23)C[C@H]1C [Compound 97],7.3,–
C=CC(=O)N1C[C@H](C)N(c2nc(=O)n(-c3c(C4CC4)nc(N4CCNCC4)nc3C3CC3)c3nc(-c4c(N)cccc4F)c(F)cc23)C[C@H]1C [Compound 98],7.4,–
C=CC(=O)N1C[C@H](C)N(c2nc(=O)n(-c3c(C4CC4)nc(N4CCN(C)CC4)nc3C3CC3)c3nc(-c4c(N)cccc4F)c(F)cc23)C[C@H]1C [Compound 99],5.8,–
C=CC(=O)N1C[C@H](C)N(c2nc(=O)n(-c3c(C4CC4)nc(N4CCNCC4)nc3C3CC3)c3nc(-c4c(O)cccc4F)c(F)cc23)C[C@H]1C [Compound 100],14.1,–
C=CC(=O)N1C[C@H](C)N(c2nc(=O)n(-c3c(C4CC4)nc(N4CCN(C)CC4)nc3C3CC3)c3nc(-c4c(O)cccc4F)c(F)cc23)C[C@H]1C [Compound 101],25.8,–
C=CC(=O)N1CCN(c2nc(=O)n(-c3c(C)cc4c(ncn4C)c3C(C)C)c3nc(-c4c(N)cccc4F)c(Cl)cc23)[C@@H](C)C1 [Compound 152],–,IC50: 0.4 nM
C=CC(=O)N1CCN(c2nc(=O)n(-c3c(C)nc4c(ncn4C)c3C(C)C)c3nc(-c4c(N)cccc4F)c(F)cc23)[C@@H](C)C1 [Compound 157],–,IC50: 152 nM
